# Target: lck (Homo sapiens, UniProt P06239)
# Test: cell-based
# Chain of lck (P06239 whole entry): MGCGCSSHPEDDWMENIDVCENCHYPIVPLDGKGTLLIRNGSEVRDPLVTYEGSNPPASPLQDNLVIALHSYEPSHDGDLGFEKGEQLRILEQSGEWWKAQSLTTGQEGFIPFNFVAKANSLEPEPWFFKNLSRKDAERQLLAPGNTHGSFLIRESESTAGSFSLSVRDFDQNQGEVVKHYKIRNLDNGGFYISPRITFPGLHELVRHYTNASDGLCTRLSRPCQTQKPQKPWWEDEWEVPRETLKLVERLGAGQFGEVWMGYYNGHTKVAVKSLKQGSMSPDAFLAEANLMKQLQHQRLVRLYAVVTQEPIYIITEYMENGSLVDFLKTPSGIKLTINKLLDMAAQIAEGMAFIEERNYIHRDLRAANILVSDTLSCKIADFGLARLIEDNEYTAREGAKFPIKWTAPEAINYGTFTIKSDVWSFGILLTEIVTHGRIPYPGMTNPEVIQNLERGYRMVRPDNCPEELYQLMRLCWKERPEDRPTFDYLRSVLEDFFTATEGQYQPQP
structure (smiles),measurement,value
N#CC(=C(/N)Sc1ccccc1N)/C(C#N)=C(\N)Sc1ccccc1N [U0126],IC50,> 30 µM

# Source: patent publication US20150185215A1, “Cell-Based Assays For Post-Translational Enzyme Activity” (Cell Assay Innovations, Inc., priority 2012, published 2015)
